The source of these data is paper PMC5773487, “Harnessing insulin- and leptin-induced oxidation of PTP1B for therapeutic development” (Nature Communications, 2018).

Assay [1] has as its target T1, K36A/K41A PTP1B-OX mutant (Homo sapiens, UniProt P18031, K36A/K41A).
T1 construct: PTP1B (1–321) and TCPTP (1–317) cloned in pET21b vector were used as templates; 6xHis (C); made in house; host or cells: E. coli BL21 (DE3)-RIL
T1 sequence (P18031 1-321 K36A/K41A): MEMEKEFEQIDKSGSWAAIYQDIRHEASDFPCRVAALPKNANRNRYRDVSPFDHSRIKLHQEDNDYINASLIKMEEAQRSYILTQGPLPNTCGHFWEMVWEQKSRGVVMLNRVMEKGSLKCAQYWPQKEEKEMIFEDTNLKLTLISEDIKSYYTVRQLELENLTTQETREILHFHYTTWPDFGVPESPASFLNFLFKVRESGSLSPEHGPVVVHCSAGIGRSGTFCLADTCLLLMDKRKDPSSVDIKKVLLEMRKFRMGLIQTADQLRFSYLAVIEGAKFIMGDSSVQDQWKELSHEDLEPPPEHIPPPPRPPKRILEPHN
The assay can be described thus: reduction and reactivation of oxidized PTP1B-K36A/K41A, DiFMUP, TCEP. It counts as biochemical. As to the method:
Fig. 5 Chelerythrine and scFv45 inhibit reactivation of PTP1B-OX by a similar mechanism. a Molecular modeling of chelerythrine binding to PTP1B-OX, with critical residues for the interaction highlighted on the right. b Oxidized PTP1B-wt (circle), PTP1B-K36A/K41A (square) were incubated with increasing concentrations of chelerythrine (0–10 mM) and phosphatase activity was measured using DiFMUP as substrate in the presence of the reducing agent TCEP (5 mM). c Oxidized PTP1B-wt (circle), PTP1B-mut1 (square), or PTP1B-mut2 (diamond) were incubated with increasing concentrations of chelerythrine (0–10 mM) and phosphatase activity was measured using DiFMUP as substrate in the presence of the reducing agent TCEP (5 mM). Individual data points represent the mean obtained from three separate experiments (n = 3; b, c). d Overlay of crystal structures of the reduced (blue) and oxidized (gray) form of PTP1B.

Another assay deals with T2, PTP1B-OX (Homo sapiens, UniProt P18031).
T2 construct: Purified PTP1B (1–321) (100 nM) was mixed with increasing concentrations of H2O2; 6xHis (C); made in house; host or cells: E. coli BL21 (DE3)-RIL
T2 sequence (P18031 1-321): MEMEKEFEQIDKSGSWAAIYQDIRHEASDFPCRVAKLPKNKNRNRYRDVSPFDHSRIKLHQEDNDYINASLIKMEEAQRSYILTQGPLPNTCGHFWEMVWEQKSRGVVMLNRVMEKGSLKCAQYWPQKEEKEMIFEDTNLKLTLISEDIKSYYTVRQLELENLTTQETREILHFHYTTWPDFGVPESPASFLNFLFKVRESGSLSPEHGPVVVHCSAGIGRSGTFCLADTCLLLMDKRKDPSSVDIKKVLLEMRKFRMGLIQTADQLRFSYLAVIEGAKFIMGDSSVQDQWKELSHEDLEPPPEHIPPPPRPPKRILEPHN
Put plainly: displacement assay of scFv antibodies from PTP1B-OX. Format: binding. The conditions noted are these: chelerythrine 0–20 μM. As to the method:
To test whether there was overlap in the binding site for chelerythrine and scFv antibodies that stabilized PTP1B-OX, we performed an in vitro competition binding assay using purified components. […] We focused on scFv106 and scFv67. Purified PTP1B (50 nM) was reversibly oxidized with 250 µM H2O2 followed by a buffer exchange to remove excess H2O2. Increasing concentration of purified scFv antibody (0–10 µM) was incubated with oxidized proteins in binding buffer (20 mM HEPES pH 7.4, 300 mM NaCl, 0.05% BSA, 0.05% Tween-20) for 2 h at 4 °C. Anti-HA agarose (Roche, 50% slurry equilibrated in the binding buffer) was added and incubated for 1 h at 4 °C. Protein complexes bound to anti-HA beads were precipitated and washed three times; first with lysis buffer followed by two more washes with wash buffer (25 mM HEPES pH 7.4, 100 mM NaCl, 0.05% BSA, 0.05% Tween-20, and protease inhibitors). The protein complex was incubated with varying concentrations of chelerythrine (0–20 µM) for 2 h at 4 °C, following which the beads were washed as described above. The complexes were resolved by SDS-PAGE and analyzed by immunoblotting.

The next assay addresses T3, PTP1B-CASA-mut2 (Homo sapiens, UniProt P18031, C215A/K39E/K41R/L37F/S216A).
T3 construct: PTP1B (1–321) and TCPTP (1–317) cloned in pET21b vector were used as templates; made in house; host or cells: E. coli BL21 (DE3)-RIL
T3 sequence (P18031 1-321 L37F/K39E/K41R/C215A/S216A limits assumed): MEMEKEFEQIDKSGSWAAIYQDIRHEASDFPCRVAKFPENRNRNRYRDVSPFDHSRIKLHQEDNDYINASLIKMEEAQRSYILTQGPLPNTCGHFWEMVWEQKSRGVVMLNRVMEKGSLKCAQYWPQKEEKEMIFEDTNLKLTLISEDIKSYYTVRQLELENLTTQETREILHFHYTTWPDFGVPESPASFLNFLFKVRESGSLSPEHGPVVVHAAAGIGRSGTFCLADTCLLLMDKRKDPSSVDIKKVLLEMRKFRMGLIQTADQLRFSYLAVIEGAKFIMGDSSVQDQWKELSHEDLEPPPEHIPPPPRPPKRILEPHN
The assay can be described thus: analytical size-exclusion chromatography. It counts as binding. The conditions noted are these: excess or limiting molar ratios. The method, then: Recombinant PTP1B-CASA, PTP1B-CASA-mut2, and scFv45 were purified as described. Proteins were exchanged into freshly prepared 50 mM ammonium bicarbonate pH 8 (Fig. 2a; Supplementary Fig. 1) using 0.5 mL Zeba spin desalting columns 7K MWCO (Thermo Fisher Scientific) as per manufacturers protocol. Designated protein constructs or buffer equivalents were mixed at 1.1 or 1.4 molar excess (excess reciprocated for both PTP1B and scFv45) and incubated on ice 20 min prior to injection (20 µL injection loop; 4–10 µg total protein), separation, and detection on a Dionex Ultimate 3000 HPLC connected to an XBridge Protein BEH SEC 200 Å, 3.5 µm, 7.8 mm × 300 mm column (Waters) flowing 200 mM ammonium acetate pH 7.0 isocratically at 0.86 mL min^−1 and 25 °C, monitoring absorbance at λ 280 nm (Fig. 2a; Supplementary Fig. 1). Injections were performed intermittently with BEH200Å SEC Protein Standard Mix (amount corrected for 20 µL injection loop; Waters Corp.) to monitor peak resolution and retention time consistency among runs.

Consider `COc1ccc2c(c[n+](C)c3c4cc5c(cc4ccc23)OCO5)c1OC` [chelerythrine], for which the IC50 in assay [1] (TCEP 5 mM, DiFMUP, read-out: IC50 against K36A/K41A PTP1B-OX mutant) came to 75 µM. Moreover, in assay [1] (reviewer's summary in peer review file), the “inhibition of PTP1B-OX relative to K36AK41A PTP1B-OX” value is 15 fold. Further, on PTP1B-OX, the “competition with scFv106 for binding to PTP1B-OX” value is listed as “competed”.

B1: scFv45: recombinant conformation-sensor single-chain variable fragment antibody recognizing oxidized PTP1B (antibody, V domains shown)
VH: TVTLDESGGGLQAPGGALSLVCKASGFTFSSYDMGWIRQAPGKGLEYVAGITDNGRYASYGSAVDGRATISRDNGQSSVRLQLNNLRAEDTGTYYCARDDGSGWTGNSIDAWGHGTEVIVSE
VL: ALTQPSSVSANPGGTVKITCSGSSSAYGYGWYQQKSPGSAPVTVIYNNNKRPSNIPSRFSGSKSGSTGTLTITGVQAEDEAVYFCGSEDSSTDAIFGAGTTLTVL
For B1, the “association with PTP1B-CASA-mut2” value with PTP1B-CASA-mut2 was “unable to associate”.
